The test system of test [1] is E. coli (KCTC 1682). Format: cell-based, Escherichia coli. How it is done:
(§1) To comprehensively evaluate the therapeutic potential of BP100 and the five selected analogs, we assessed their capacity to maintain antibacterial activity in the presence of physiological salts and serum (Table 4). Antibacterial assays were conducted in an environment supplemented with either […] fresh human serum or physiological salts. […] This enhanced stability in physiologically relevant conditions may have important implications for the potential therapeutic applications of these peptide analogs.
(§2) The minimal inhibitory concentrations (MICs) of the peptides against bacterial strains were determined using a modified broth-microdilution method in accordance with the National Committee for Clinical Laboratory Standards (NCCLS) guidelines. Overnight cultures were diluted in cation-adjusted Mueller–Hinton Broth (MHB) to achieve an inoculum density of 2 × 10^6 CFU/mL. A two-fold serial dilution of the peptide solution (100 μL) was introduced into microtiter plates, followed by the addition of 100 μL of bacterial suspension. The plates were then incubated at 37 °C for 24 h to determine the MICs. Wells containing only culture media served as negative controls, while those with added bacteria functioned as positive controls. The MIC, expressed in μM, was defined as the lowest peptide concentration that prevented visible bacterial growth. This protocol was also employed to determine MICs in the presence of physiological salts (150 mM of NaCl, 4.5 mM of KCl, 6 μM of NH4Cl, 1 mM of MgCl2, 2.5 mM of CaCl2, and 4 μM of FeCl3) and 20% human serum to assess the peptides’ efficacy under conditions more closely resembling physiological environments. All experiments were conducted in triplicate and repeated three times independently to ensure reproducibility and statistical significance of the results.

The subject of test [2] is S. aureus (KCTC 1621). Format: cell-based, Staphylococcus aureus. The protocol:
as §1, §2

Test [3] relates to E. coli (KCTC 1682). It is filed as cell-based, Escherichia coli. Particulars: 10% Human Serum.

≈ marks a conversion by molar mass, not a printed value. Like-named read-outs stand apart in the source and are kept apart here. Where no end group is shown, it is not given here.

Drawing on PMC11596392, “Enhanced Antibacterial, Anti-Inflammatory, and Antibiofilm Activities of Tryptophan-Substituted Peptides Derived from Cecropin A-Melittin Hybrid Peptide BP100” (Molecules, 2024), this text covers MIC for six molecules.

One may read the MIC as the least concentration at which growth counts as inhibited.

Take `CC[C@H](C)[C@H](NC(=O)[C@H](CCCCN)NC(=O)[C@H](CCCCN)NC(=O)[C@H](Cc1ccccc1)NC(=O)[C@H](CC(C)C)NC(=O)[C@H](CCCCN)NC(=O)[C@@H](N)CCCCN)C(=O)N[C@@H](CC(C)C)C(=O)N[C@@H](CCCCN)C(=O)N[C@@H](Cc1ccc(O)cc1)C(=O)N[C@@H](CC(C)C)C(N)=O` [BP100]: the minimal inhibitory concentration (MIC) in test [1] (4 μM of FeCl3), in test [1] (6 μM of NH4Cl), in test [1] (1 mM of MgCl2), in test [1] (2.5 mM of CaCl2), in test [1] (4.5 mM of KCl) and in test [1] (150 mM of NaCl) was 16 µM (≈ 22.7 µg/mL) each time. Further, the minimal inhibitory concentration (MIC) turned out to be 4 µM in test [1] (Control, absence of salts); 16 µM (≈ 22.7 µg/mL) in test [2] (4 μM of FeCl3); 16 µM (≈ 22.7 µg/mL) in test [2] (6 μM of NH4Cl); 16 µM (≈ 22.7 µg/mL) in test [2] (1 mM of MgCl2); 16 µM (≈ 22.7 µg/mL) in test [2] (2.5 mM of CaCl2); 16 µM (≈ 22.7 µg/mL) in test [2] (4.5 mM of KCl). Further, the minimum inhibitory concentration (MIC) in test [2] (150 mM of NaCl) was 16 µM (≈ 22.7 µg/mL); in test [2] (Control, absence of salts), 4 µM; in test [3], 16 µM (≈ 22.7 µg/mL).
On to KKLFKKIWKWL-NH2 [BP11], for which the MIC came out at 4 µM in test [1] (4 μM of FeCl3); 4 µM in test [1] (6 μM of NH4Cl); 8 µM in test [1] (1 mM of MgCl2); 16 µM in test [1] (2.5 mM of CaCl2); 8 µM in test [1] (4.5 mM of KCl); 16 µM in test [1] (150 mM of NaCl). Further, the MIC in test [1] (Control, absence of salts) was found to be 8 µM; in test [2] (4 μM of FeCl3), 4 µM; in test [2] (6 μM of NH4Cl), 4 µM; in test [2] (1 mM of MgCl2), 4 µM; in test [2] (2.5 mM of CaCl2) it was 16 µM; in test [2] (4.5 mM of KCl), 4 µM. Besides, the MIC turned out to be 8 µM in test [2] (150 mM of NaCl); 4 µM in test [2] (Control, absence of salts); 8 µM in test [3].
As for KKLWKKILKWL-NH2 [BP8], the minimal inhibitory concentration (MIC) in test [1] (4 μM of FeCl3) stood at 4 µM; in test [1] (6 μM of NH4Cl), 8 µM; in test [1] (1 mM of MgCl2), 8 µM; in test [1] (2.5 mM of CaCl2) it was 16 µM; in test [1] (4.5 mM of KCl) it was 4 µM; in test [1] (150 mM of NaCl) it was 8 µM. Further, the minimal inhibitory concentration (MIC) was 2 µM in test [1] (Control, absence of salts); 4 µM in test [2] (4 μM of FeCl3); 4 µM in test [2] (6 μM of NH4Cl); 4 µM in test [2] (1 mM of MgCl2); 4 µM in test [2] (2.5 mM of CaCl2); 4 µM in test [2] (4.5 mM of KCl). The minimal inhibitory concentration (MIC) in test [2] (150 mM of NaCl) came to 4 µM; in test [2] (Control, absence of salts), 4 µM; in test [3], 4 µM.
KKWFKKILKWL-NH2 [BP6]: the MIC in test [1] (4 μM of FeCl3) stood at 16 µM; in test [1] (6 μM of NH4Cl), 16 µM; in test [1] (1 mM of MgCl2), 8 µM; in test [1] (2.5 mM of CaCl2), 16 µM; in test [1] (4.5 mM of KCl), 4 µM; in test [1] (150 mM of NaCl), 8 µM. Further, the MIC is 4 µM in test [1] (Control, absence of salts); 8 µM in test [2] (4 μM of FeCl3); 4 µM in test [2] (6 μM of NH4Cl); 4 µM in test [2] (1 mM of MgCl2); 4 µM in test [2] (2.5 mM of CaCl2); 4 µM in test [2] (4.5 mM of KCl). Also, the minimal inhibitory concentration (MIC) in test [2] (150 mM of NaCl) amounted to 4 µM; in test [2] (Control, absence of salts), 2 µM; in test [3], 4 µM.
As for KKWFKKWLKWL-NH2 [BP13], the MIC was found to be 8 µM in test [1] (4 μM of FeCl3); 8 µM in test [1] (6 μM of NH4Cl); 8 µM in test [1] (1 mM of MgCl2); 16 µM in test [1] (2.5 mM of CaCl2); 8 µM in test [1] (4.5 mM of KCl); 16 µM in test [1] (150 mM of NaCl). For the same molecule, the MIC in test [1] (Control, absence of salts) came out at 8 µM; in test [2] (4 μM of FeCl3), 8 µM; in test [2] (6 μM of NH4Cl) it was 8 µM; in test [2] (1 mM of MgCl2), 8 µM; in test [2] (2.5 mM of CaCl2), 8 µM; in test [2] (4.5 mM of KCl) it was 8 µM. Besides, the minimal inhibitory concentration (MIC) in test [2] (150 mM of NaCl) is 8 µM; in test [2] (Control, absence of salts), 4 µM; in test [3], 16 µM.
Turning to KKWWKKILKYL-NH2 [BP5], the MIC in test [1] (4 μM of FeCl3) is 8 µM; in test [1] (6 μM of NH4Cl) it was 4 µM; in test [1] (1 mM of MgCl2) it was 4 µM; in test [1] (2.5 mM of CaCl2), 8 µM; in test [1] (4.5 mM of KCl), 4 µM; in test [1] (150 mM of NaCl) it was 8 µM. Besides, the minimal inhibitory concentration (MIC) was 2 µM in test [1] (Control, absence of salts); 4 µM in test [2] (4 μM of FeCl3); 4 µM in test [2] (6 μM of NH4Cl); 4 µM in test [2] (1 mM of MgCl2); 4 µM in test [2] (2.5 mM of CaCl2); 4 µM in test [2] (4.5 mM of KCl). Moreover, the MIC in test [2] (150 mM of NaCl) came out at 4 µM; in test [2] (Control, absence of salts), 2 µM; in test [3], 4 µM.
